pKi: −log10 of the molar value.
Legend:
Assay in all cases: Ray2010 Assay 74
[1] = molecular target: Sigma non-opioid intracellular receptor 1 (Homo sapiens, UniProt Q99720)
Text: (§1) Table S2 shows raw Ki data for the current study combined with data collected from the literature for the ten additional compounds.

[2] = molecular target: T1, Gamma-aminobutyric acid receptor subunit alpha-1/Adenosine receptor A1 (Homo sapiens, UniProt P14867+P30542)
T1 sequence (P30542 whole entry): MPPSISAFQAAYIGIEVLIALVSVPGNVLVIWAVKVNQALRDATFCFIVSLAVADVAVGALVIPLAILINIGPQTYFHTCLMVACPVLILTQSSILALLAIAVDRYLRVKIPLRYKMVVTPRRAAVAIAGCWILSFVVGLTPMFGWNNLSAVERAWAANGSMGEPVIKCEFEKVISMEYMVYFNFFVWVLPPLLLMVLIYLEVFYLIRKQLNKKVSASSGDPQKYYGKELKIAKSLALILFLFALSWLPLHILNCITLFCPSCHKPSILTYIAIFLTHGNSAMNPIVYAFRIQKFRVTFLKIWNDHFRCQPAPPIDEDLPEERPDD
T1 sequence (P14867 whole entry): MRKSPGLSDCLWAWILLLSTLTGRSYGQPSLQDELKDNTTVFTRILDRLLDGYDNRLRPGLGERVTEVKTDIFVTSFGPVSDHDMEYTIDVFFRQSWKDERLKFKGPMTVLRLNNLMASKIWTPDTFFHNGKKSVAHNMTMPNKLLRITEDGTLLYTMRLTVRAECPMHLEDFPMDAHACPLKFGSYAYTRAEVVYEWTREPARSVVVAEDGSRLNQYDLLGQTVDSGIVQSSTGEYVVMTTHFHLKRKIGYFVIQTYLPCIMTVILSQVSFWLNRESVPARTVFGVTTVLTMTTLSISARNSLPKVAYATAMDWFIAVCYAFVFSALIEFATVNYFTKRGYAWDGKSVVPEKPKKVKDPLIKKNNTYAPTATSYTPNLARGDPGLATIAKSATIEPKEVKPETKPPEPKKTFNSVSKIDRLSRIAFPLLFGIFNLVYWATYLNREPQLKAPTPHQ
Text: as §1

[3] = molecular target: Voltage-dependent calcium channel subunit alpha-2/delta-1 (Homo sapiens, UniProt P54289)
Text: as §1

[4] = molecular target: Histamine H3 receptor (Homo sapiens, UniProt Q9Y5N1)
Text: as §1

[5] = molecular target: D(1A) dopamine receptor (Homo sapiens, UniProt P21728)
Text: as §1

[6] = molecular target: Cannabinoid receptor 2 (Homo sapiens, UniProt P34972)
Text: as §1

[7] = molecular target: T2, Vasopressin V1b receptor (Homo sapiens, UniProt P47901)
T2 sequence (P47901 whole entry): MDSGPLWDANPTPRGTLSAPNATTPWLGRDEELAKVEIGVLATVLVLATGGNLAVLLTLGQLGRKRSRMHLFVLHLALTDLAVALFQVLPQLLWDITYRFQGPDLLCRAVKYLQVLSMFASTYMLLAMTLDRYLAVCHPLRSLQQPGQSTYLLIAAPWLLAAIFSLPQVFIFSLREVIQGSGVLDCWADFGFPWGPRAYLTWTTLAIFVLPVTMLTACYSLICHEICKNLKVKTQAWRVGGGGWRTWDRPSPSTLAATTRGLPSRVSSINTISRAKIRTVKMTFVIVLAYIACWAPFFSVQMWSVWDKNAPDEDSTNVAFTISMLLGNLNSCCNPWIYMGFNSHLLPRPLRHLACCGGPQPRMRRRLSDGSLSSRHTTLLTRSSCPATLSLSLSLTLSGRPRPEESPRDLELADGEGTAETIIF
Text: as §1

[8] = molecular target: D(1B) dopamine receptor (Homo sapiens, UniProt P21918)
D(1B) dopamine receptor, sequence (P21918 whole entry): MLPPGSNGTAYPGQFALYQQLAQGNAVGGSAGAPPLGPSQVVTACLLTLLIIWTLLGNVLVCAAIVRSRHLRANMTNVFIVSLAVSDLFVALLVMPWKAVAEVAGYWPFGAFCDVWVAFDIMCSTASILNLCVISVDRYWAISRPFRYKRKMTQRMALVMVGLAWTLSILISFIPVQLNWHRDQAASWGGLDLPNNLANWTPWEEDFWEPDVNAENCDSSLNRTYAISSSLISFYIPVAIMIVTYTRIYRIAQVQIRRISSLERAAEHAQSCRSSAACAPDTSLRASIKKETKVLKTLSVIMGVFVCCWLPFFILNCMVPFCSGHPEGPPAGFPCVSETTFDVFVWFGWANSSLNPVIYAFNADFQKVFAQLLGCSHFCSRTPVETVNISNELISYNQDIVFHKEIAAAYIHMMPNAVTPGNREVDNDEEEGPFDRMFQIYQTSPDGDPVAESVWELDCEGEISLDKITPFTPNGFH
Text: as §1

[9] = molecular target: Muscarinic acetylcholine receptor M3 (Homo sapiens, UniProt P20309)
Muscarinic acetylcholine receptor M3, sequence (P20309 whole entry): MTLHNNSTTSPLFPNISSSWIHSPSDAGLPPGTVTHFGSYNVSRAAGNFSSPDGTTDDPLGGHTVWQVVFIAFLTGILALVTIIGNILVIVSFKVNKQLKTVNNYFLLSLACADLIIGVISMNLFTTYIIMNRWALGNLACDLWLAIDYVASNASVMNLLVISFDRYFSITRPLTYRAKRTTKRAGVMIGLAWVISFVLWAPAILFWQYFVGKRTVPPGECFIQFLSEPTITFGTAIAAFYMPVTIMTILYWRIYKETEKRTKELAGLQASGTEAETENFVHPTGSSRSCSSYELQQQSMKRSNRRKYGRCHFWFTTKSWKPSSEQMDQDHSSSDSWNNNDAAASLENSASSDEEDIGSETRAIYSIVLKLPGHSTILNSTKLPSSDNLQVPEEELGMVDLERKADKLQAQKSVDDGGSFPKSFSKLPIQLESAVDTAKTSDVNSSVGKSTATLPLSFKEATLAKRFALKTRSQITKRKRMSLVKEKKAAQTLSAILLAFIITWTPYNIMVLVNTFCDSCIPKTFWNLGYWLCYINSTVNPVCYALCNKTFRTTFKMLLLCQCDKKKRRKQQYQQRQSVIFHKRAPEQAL
Text: as §1

[10] = molecular target: Nischarin (Homo sapiens, UniProt Q9Y2I1)
Nischarin, sequence (Q9Y2I1 whole entry): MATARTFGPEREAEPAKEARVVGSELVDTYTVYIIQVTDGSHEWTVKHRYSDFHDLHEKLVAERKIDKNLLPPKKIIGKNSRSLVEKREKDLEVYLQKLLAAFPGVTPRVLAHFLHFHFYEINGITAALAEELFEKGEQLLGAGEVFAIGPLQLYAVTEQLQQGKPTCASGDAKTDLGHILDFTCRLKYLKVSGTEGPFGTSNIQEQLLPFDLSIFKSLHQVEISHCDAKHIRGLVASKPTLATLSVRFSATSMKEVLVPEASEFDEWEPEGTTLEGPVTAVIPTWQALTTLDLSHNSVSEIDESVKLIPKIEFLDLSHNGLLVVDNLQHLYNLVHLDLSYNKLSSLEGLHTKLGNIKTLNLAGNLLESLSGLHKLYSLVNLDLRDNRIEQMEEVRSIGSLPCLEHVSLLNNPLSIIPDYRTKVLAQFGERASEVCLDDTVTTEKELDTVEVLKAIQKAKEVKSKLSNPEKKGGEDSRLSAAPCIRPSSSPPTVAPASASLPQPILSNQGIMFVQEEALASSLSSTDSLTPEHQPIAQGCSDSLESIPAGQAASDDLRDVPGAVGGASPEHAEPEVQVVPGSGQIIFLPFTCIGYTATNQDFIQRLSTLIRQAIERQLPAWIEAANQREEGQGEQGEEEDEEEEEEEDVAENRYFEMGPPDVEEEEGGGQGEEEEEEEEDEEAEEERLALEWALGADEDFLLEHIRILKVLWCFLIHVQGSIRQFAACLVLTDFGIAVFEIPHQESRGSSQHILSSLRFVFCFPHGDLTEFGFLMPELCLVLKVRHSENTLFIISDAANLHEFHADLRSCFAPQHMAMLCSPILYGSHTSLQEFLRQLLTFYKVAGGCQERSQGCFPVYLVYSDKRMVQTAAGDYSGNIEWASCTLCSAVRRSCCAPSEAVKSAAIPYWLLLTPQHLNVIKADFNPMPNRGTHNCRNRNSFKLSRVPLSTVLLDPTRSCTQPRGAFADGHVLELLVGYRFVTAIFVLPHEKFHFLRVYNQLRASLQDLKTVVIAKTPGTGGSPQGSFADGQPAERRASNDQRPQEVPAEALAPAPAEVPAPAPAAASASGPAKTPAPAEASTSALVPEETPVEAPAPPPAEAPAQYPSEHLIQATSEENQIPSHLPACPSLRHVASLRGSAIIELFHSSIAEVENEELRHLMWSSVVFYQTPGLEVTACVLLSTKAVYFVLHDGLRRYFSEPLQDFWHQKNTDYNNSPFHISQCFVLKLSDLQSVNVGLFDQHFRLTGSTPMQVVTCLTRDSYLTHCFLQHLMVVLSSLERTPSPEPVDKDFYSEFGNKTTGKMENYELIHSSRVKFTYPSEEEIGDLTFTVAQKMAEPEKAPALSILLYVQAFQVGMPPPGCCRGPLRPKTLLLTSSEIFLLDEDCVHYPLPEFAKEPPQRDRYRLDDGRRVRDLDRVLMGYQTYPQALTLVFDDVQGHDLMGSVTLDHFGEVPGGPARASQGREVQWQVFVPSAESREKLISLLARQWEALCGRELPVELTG
Text: as §1

[11] = molecular target: Mu-type opioid receptor (Homo sapiens, UniProt P35372)
Mu-type opioid receptor, sequence (P35372 whole entry): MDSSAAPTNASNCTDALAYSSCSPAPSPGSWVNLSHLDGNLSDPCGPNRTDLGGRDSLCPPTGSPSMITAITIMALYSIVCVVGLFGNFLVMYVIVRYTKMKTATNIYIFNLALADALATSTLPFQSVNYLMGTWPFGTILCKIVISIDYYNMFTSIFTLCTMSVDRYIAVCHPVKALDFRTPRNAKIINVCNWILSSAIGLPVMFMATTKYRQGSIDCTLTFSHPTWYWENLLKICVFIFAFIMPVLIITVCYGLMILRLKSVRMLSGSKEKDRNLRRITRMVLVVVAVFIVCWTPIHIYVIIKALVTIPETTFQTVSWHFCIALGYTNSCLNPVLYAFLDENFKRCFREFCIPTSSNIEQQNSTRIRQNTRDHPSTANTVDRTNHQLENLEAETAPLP
Text: as §1

[12] = molecular target: Sigma intracellular receptor 2 (Homo sapiens, UniProt Q5BJF2)
Text: as §1

[13] = molecular target: 5-hydroxytryptamine receptor 1B (Homo sapiens, UniProt P28222)
Text: as §1

[14] = molecular target: Vasopressin V1a receptor (Homo sapiens, UniProt P37288)
Vasopressin V1a receptor, sequence (P37288 whole entry): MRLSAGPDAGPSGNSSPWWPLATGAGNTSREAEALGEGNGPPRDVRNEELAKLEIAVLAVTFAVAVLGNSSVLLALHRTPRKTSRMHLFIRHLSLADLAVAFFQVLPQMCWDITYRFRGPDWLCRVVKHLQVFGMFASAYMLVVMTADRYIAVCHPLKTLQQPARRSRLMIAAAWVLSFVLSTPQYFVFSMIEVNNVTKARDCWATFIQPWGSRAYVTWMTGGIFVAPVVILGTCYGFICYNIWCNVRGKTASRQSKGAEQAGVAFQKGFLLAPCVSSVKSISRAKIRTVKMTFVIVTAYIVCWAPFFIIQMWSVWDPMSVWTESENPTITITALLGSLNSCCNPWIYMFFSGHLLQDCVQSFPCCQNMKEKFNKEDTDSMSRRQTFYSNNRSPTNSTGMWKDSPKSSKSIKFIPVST
Text: as §1

[15] = molecular target: Sodium-dependent dopamine transporter (Homo sapiens, UniProt Q01959)
Sodium-dependent dopamine transporter, sequence (Q01959 whole entry): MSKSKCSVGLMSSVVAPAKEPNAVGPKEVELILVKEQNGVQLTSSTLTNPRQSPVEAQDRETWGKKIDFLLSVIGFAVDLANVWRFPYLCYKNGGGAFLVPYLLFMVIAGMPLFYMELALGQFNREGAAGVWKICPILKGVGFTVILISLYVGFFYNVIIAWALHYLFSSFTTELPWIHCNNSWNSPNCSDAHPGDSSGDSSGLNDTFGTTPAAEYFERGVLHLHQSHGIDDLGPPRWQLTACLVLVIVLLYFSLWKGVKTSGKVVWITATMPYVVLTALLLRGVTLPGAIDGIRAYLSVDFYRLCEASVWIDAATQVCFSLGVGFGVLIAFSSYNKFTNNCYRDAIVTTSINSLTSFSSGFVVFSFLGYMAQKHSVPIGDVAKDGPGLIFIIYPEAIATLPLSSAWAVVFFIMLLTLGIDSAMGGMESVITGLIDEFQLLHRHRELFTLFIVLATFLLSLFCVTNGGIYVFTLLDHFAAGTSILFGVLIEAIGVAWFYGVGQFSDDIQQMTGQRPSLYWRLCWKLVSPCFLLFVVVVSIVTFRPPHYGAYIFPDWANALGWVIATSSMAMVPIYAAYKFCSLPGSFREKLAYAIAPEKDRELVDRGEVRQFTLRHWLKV
Text: as §1

[16] = molecular target: Delta-type opioid receptor (Homo sapiens, UniProt P41143)
Delta-type opioid receptor, sequence (P41143 whole entry): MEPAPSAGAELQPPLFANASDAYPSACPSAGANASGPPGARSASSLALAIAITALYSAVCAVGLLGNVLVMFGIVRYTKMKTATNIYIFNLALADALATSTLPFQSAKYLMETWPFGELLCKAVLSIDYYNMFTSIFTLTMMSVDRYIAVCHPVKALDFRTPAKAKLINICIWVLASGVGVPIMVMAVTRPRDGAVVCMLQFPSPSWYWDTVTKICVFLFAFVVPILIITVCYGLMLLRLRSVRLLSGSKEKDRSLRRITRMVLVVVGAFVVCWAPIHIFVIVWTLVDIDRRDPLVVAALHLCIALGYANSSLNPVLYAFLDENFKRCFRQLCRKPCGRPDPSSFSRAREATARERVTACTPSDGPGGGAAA
Text: as §1

[17] = molecular target: 5-hydroxytryptamine receptor 2B (Homo sapiens, UniProt P41595)
5-hydroxytryptamine receptor 2B, sequence (P41595 whole entry): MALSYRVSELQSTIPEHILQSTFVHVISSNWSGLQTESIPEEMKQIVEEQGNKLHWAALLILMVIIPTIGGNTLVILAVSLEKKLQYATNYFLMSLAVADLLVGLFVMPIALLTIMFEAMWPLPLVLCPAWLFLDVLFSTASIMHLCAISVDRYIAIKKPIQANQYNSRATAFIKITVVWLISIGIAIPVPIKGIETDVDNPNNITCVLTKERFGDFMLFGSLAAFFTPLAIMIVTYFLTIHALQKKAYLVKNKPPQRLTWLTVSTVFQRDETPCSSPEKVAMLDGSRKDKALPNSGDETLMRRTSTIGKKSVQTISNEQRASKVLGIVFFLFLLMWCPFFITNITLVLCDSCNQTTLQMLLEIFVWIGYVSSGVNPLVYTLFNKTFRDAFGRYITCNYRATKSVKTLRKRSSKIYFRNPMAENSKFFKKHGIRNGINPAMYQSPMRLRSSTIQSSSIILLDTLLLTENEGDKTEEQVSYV
Text: as §1

[18] = molecular target: Kappa-type opioid receptor (Homo sapiens, UniProt P41145)
Text: as §1

[19] = molecular target: T3, Prostaglandin E2 receptor EP3 subtype (Homo sapiens, UniProt P43115)
T3 sequence (P43115 whole entry): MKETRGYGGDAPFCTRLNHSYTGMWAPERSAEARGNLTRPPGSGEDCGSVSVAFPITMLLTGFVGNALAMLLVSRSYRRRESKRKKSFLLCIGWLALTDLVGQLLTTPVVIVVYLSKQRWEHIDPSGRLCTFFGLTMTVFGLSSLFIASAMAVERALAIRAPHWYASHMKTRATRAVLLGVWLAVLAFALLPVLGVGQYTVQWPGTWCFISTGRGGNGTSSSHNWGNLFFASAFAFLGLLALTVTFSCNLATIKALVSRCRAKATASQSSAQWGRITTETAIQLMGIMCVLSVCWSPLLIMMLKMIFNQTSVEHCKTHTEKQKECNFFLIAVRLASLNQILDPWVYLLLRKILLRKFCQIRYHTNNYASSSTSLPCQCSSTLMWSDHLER
Text: as §1

[20] = molecular target: Beta-2 adrenergic receptor (Homo sapiens, UniProt P07550)
Text: as §1

| Structure (SMILES) | pKi [1] | pKi [2] | pKi [3] | pKi [4] | pKi [5] | pKi [6] | pKi [7] | pKi [8] | pKi [9] | pKi [10] | pKi [11] | pKi [12] | pKi [13] | pKi [14] | pKi [15] | pKi [16] | pKi [17] | pKi [18] | pKi [19] | pKi [20] |
| --- | --- | --- | --- | --- | --- | --- | --- | --- | --- | --- | --- | --- | --- | --- | --- | --- | --- | --- | --- | --- |
| COc1ccc2[nH]cc(CCN(C)C(C)C)c2c1 [5-meo-mipt] | < 5.00 | < 5.00 | < 5.00 | < 5.00 | < 5.00 | < 5.00 | < 5.00 | < 5.00 | < 5.00 | 6.06 | < 5.00 | 6.04 | 6.52 | < 5.00 | < 5.00 | < 5.00 | 7.23 | < 5.00 | < 5.00 | < 5.00 |
| CN(C)CCc1c[nH]c2cc(F)ccc12 [6-f-dmt] | 5.16 | < 5.00 | < 5.00 | < 5.00 | 6.26 | < 5.00 | < 5.00 | 5.20 | < 5.00 | 6.05 | < 5.00 | 5.15 | 6.66 | < 5.00 | < 5.00 | < 5.00 | 7.53 | < 5.00 | < 5.00 | < 5.00 |
